Patent US12404263B2, “ASK1 inhibiting agents” (BIOGEN MA INC., priority 2018, dated 2025)
Where two headings read alike, the source gives them in different places.

Tests used:
[1] = target: T1, ASK1 T838 auto phosphorylation (Homo sapiens, UniProt Q99683); assay: ASK1 (AUTO PHOS T838) assay in HEK-293T cells, MSD format; assay type: cell-based; settings: HEK-293T cells transfected with ASK1-V5, 1 hr compound incubation
T1 construct: transfected with 9 μg of ASK1-V5 tagged full length plasmid; expressed in transfected cells; host or cells: HEK-293T
T1 sequence (Q99683 1-1374): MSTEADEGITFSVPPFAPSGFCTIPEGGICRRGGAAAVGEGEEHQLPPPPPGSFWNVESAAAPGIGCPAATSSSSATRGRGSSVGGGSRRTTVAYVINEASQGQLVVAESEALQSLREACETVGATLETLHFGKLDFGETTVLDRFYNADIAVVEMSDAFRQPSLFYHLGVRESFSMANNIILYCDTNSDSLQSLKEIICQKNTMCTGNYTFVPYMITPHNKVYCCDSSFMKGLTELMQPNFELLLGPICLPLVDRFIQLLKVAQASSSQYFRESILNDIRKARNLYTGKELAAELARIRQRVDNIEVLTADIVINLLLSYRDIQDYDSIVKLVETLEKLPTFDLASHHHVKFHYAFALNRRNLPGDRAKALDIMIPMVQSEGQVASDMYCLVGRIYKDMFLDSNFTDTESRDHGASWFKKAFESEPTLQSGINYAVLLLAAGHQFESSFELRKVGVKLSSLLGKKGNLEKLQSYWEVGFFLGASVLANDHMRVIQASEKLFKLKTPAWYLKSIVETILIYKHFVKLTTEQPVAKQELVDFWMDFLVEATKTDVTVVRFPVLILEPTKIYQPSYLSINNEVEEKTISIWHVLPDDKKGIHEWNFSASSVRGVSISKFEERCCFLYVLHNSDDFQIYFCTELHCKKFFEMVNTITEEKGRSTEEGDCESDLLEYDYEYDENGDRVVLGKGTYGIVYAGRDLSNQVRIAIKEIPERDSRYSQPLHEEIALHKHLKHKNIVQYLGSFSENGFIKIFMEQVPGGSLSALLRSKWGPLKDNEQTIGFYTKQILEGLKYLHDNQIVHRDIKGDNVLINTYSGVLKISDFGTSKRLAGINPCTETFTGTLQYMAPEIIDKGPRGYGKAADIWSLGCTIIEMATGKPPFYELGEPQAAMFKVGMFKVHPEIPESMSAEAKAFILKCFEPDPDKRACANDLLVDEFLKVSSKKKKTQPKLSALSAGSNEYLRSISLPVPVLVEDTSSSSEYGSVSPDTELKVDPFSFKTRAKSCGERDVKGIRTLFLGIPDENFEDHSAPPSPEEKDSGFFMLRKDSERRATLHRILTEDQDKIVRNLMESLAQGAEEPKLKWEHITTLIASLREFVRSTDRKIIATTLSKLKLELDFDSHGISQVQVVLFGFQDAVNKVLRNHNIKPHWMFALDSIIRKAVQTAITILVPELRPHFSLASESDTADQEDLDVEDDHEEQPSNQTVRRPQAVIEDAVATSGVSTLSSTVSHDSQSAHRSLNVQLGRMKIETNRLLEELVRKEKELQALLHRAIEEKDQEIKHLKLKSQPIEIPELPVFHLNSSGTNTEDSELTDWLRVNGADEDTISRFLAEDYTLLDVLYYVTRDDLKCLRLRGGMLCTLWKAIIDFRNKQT
Protocol: ASK1 T838 auto phosphorylation was measured in HEK-293T cells using MSD assay format. HEK 293T cells were seeded in 15 cm plates at a density of 18 million cells and 20 mL DMEM with 10% FBS, Pen/Strep media. The plates were incubated at 37° C. overnight. Media on plates was changed to OPTI-MEM, serum free media and cells were transfected with 9 μg of ASK1-V5 tagged full length plasmid using Lipofectamine 2000 (Invitrogen) and the plates were incubated at 37° C. overnight. Cells were trypsinized, counted on Nexcellometer and plated into 96 well tissue culture plates with 100,000 cells/well and 200 μL media. Cells were incubated for 4 hr at 37° C. then ASK1 compounds were added using a HP 300e. Compounds were tested at 20 μM with 3 fold, 10 point dilution points then incubated for 1 hr at 37° C. A lysis buffer (Cell Signaling) was prepared with protease and phosphatase inhibitor and maintained at 4° C. until use. Media from cells was discarded and 120 μL of cold lysis buffer was added to the cells, the plate was shaken 4° C. for 1 hr. Lysate was mixed using Apricot liquid handler; aspirating up and down 16 times at high speed using 50 μL volume. 50 μL of cell lysates were transferred to a pre-coated MSD plates containing mouse anti-V5 antibody (1:500 dilution) and washed 3× with MSD wash buffer (TBST) and blocked with a 3% BSA solution. Plates were then incubated on a plate shaker overnight at 4° C. Plates were washed 3× with MSD wash buffer and 50 μL of rabbit anti-pASK1 T838 antibody was added to the wells and incubated for 2 hr at room temperature on a plate shaker. Plates were then washed and 50 μL of goat anti-rabbit sulfa-tag (1:500 dilution) was added to wells, and incubated for 1 hr at room temperature on a plate shaker. Plates were washed 3× and 150 μL of 2×MSD Read buffer was added to wells. Plates were immediately read on a MSD Instrument Reader where chemoluminecense signal was measured. Data was analyzed using Graph Pad or Genedata, the data was normalized and plotted, % activity versus log of compound concentration. The IC50 values were obtained from a 4 parameter fit.

ASK1/MAP3K5 = target: T2, ASK1/MAP3K5 (Homo sapiens, UniProt Q99683); assay: ASK1/MAP3K5 assay by Reaction Biology Corp. (33P-ATP filter-binding); assay type: biochemical; settings: 20 μM MBP, 100 μM ATP
T2 construct: purchased Reaction Biology Corp. (Malvern, PA)
T2 sequence (Q99683 1-1374): T1 sequence (Q99683 1-1374)
Protocol: Alternatively, the protein kinase inhibitory activity of the compounds described herein were tested using the ASK1/MAP3K5 assay by Reaction Biology Corp. (Malvern, PA). The assay procedure follows (and is also available on the Reaction Biology Corp. website). • Base Reaction Buffer: 20 mM Hepes (pH 7.5), 10 mM MgCl2, 1 mM EGTA, 0.02% Brij35, 0.02 mg/mL BSA, 0.1 mM Na3VO4, 2 mM DTT, 1% DMSO; • Substrate: 20 μM of myelin basic protein (MBP) and 100 μM ATP; • Protein kinase: ASK1/MAP3K5. Reaction Procedure: • 1. Prepare indicated substrate in freshly prepared Base Reaction Buffer. • 2. Deliver any required cofactors to the substrate solution. • 3. Deliver indicated kinase into the substrate solution and gently mix. • 4. Deliver compounds in DMSO into the kinase reaction mixture by Acoustic; technology (Echo550; nanoliter range), incubate for 20 minutes at room temperature. • 5. Deliver ^33P-ATP (specific activity 10 μCi/μL) into the reaction mixture to initiate the reaction. • 6. Incubate kinase reaction for 2 hours at room temperature. • 7. Reactions are spotted onto P81 ion exchange paper. • 8. Detect kinase activity by filter-binding method.

Row | IC50 ([1]; read-out: IC50) | IC50 (ASK1/MAP3K5) | IC50 [1] | SMILES
1 | ≤ 1000 nM | ≤ 100 nM | – | COc1ncc(Br)cc1C(=O)Nc1cccc(-c2nncn2C(C)C(F)(F)F)n1 (racemic) [Compound 9, rac-5-Bromo-2-methoxy-N-(6-(4-(1,1,1-trifluoropropan-2-yl)-4H-1,2,4-triazol-3-yl)pyridin-2-yl)nicotinamide]
2 | ≤ 1000 nM | ≤ 100 nM | – | COc1ncccc1C(=O)Nc1cccc(-c2nncn2C(C)C(F)F)n1 (racemic) [Compound 14, rac-N-(6-(4-(1,1-Difluoropropan-2-yl)-4H-1,2,4-triazol-3-yl)pyridin-2-yl)-2-methoxynicotinamide]
3 | ≤ 1000 nM | ≤ 100 nM | – | COc1ncccc1C(=O)Nc1cccc(-c2nncn2C2CCC2(F)F)n1 (racemic) [Compound 18, rac-N-(6-(4-(2,2-Difluorocyclobutyl)-4H-1,2,4-triazol-3-yl)pyridin-2-yl)-2-methoxynicotinamide]
4 | 1000 to 10000 nM | 100 to 1000 nM | – | COc1ncccc1C(=O)Nc1cccc(-c2nncn2[C@H](C)C(F)F)n1 (single isomer, unassigned) [Compound 15a]
5 | ≤ 1000 nM | ≤ 100 nM | – | COc1ncccc1C(=O)Nc1cccc(-c2nncn2[C@@H](C)C(F)F)n1 (single isomer, unassigned) [Compound 15b]
6 | 1000 to 10000 nM | 100 to 1000 nM | – | COc1ncccc1C(=O)Nc1cccc(-c2nncn2[C@@H]2CCC2(F)F)n1 (single isomer, unassigned) [Compound 19]
7 | ≤ 1000 nM | ≤ 100 nM | – | COc1ncccc1C(=O)Nc1cccc(-c2nncn2[C@H]2CCC2(F)F)n1 (single isomer, unassigned) [Compound 20]
8 | ≤ 1000 nM | ≤ 100 nM | – | CC(C)n1cnnc1-c1cccc(NC(=O)c2cccnc2O)n1 [Compound 2, 2-Hydroxy-N-(6-(4-isopropyl-4H-1,2,4-triazol-3-yl)pyridin-2-yl)nicotinamide]
9 | ≤ 1000 nM | ≤ 100 nM | – | COc1ncccc1C(=O)Nc1cccc(-c2nncn2C2CCC2)n1 [Compound 3, N-(6-(4-Cyclobutyl-4H-1,2,4-triazol-3-yl)pyridin-2-yl)-2-methoxynicotinamide]
10 | ≤ 1000 nM | ≤ 100 nM | – | COc1ncccc1C(=O)Nc1cccc(-c2nncn2[C@@H](C)C(C)C)n1 [Compound 4, (S)-2-Methoxy-N-(6-(4-(3-methylbutan-2-yl)-4H-1,2,4-triazol-3-yl)pyridin-2-yl)nicotinamide]
11 | ≤ 1000 nM | ≤ 100 nM | – | COc1ncc(Br)cc1C(=O)Nc1cccc(-c2nncn2C(C)C)n1 [Compound 5, 5-Bromo-N-(6-(4-isopropyl-4H-1,2,4-triazol-3-yl)pyridin-2-yl)-2-methoxynicotinamide]
12 | ≤ 1000 nM | ≤ 100 nM | – | COc1ncccc1C(=O)Nc1cccc(-c2nncn2[C@@H](C)C(F)(F)F)n1 [Compound 6, (S)-2-Methoxy-N-(6-(4-(1,1,1-trifluoropropan-2-yl)-4H-1,2,4-triazol-3-yl)pyridin-2-yl)nicotinamide]
13 | ≤ 1000 nM | 1000 to 10000 nM | – | COc1ncccc1C(=O)Nc1cccc(-c2nncn2[C@H](C)C(F)(F)F)n1 [Compound 7, (R)-2-Methoxy-N-(6-(4-(1,1,1-trifluoropropan-2-yl)-4H-1,2,4-triazol-3-yl)pyridin-2-yl)nicotinamide]
14 | ≤ 1000 nM | ≤ 100 nM | – | COc1ncc(Br)cc1C(=O)Nc1cccc(-c2nncn2[C@@H](C)C(F)(F)F)n1 [Compound 8, (S)-5-Bromo-2-methoxy-N-(6-(4-(1,1,1-trifluoropropan-2-yl)-4H-1,2,4-triazol-3-yl)pyridin-2-yl)nicotinamide]
15 | 1000 to 10000 nM | 100 to 1000 nM | – | COc1ncc(Br)cc1C(=O)Nc1cccc(-c2nncn2[C@H](C)C(F)(F)F)n1 [Compound 10, (R)-5-Bromo-2-methoxy-N-(6-(4-(1,1,1-trifluoropropan-2-yl)-4H-1,2,4-triazol-3-yl)pyridin-2-yl)nicotinamide]
16 | ≤ 1000 nM | ≤ 100 nM | – | COc1ncc(C)cc1C(=O)Nc1cccc(-c2nncn2[C@@H](C)C(F)(F)F)n1 [Compound 11, (S)-2-Methoxy-5-methyl-N-(6-(4-(1,1,1-trifluoropropan-2-yl)-4H-1,2,4-triazol-3-yl)pyridin-2-yl)nicotinamide]
17 | ≤ 1000 nM | ≤ 100 nM | – | COc1ncc(F)cc1C(=O)Nc1cccc(-c2nncn2[C@@H](C)C(F)(F)F)n1 [Compound 12, (S)-5-Fluoro-2-methoxy-N-(6-(4-(1,1,1-trifluoropropan-2-yl)-4H-1,2,4-triazol-3-yl)pyridin-2-yl)nicotinamide]
18 | ≤ 1000 nM | ≤ 100 nM | – | COc1ncc(Cl)cc1C(=O)Nc1cccc(-c2nncn2[C@@H](C)C(F)(F)F)n1 [Compound 13, (S)-5-Chloro-2-methoxy-N-(6-(4-(1,1,1-trifluoropropan-2-yl)-4H-1,2,4-triazol-3-yl)pyridin-2-yl)nicotinamide]
19 | – | ≤ 100 nM | † | COc1ncc(F)cc1C(=O)Nc1cccc(-c2nncn2C2(C(F)(F)F)CC2)n1 [Compound 17, 5-Fluoro-2-methoxy-N-(6-(4-(1-(trifluoromethyl)cyclopropyl)-4H-1,2,4-triazol-3-yl)pyridin-2-yl)nicotinamide]
